System: monax PBMC
Assay: Marmota TNFα expression in stimulated PBMC by real time PCR
Assay type: cell-based
Settings: TaqMan real time PCR
Procedure: Total RNA was extracted from stimulated monax PBMC using the RNeasy®Mini kit (Qiagen, Maryland, MD) according to the manufacturer's protocol. Briefly, cells were pelleted and resuspended in 600 ul RLT buffer. The sample was vortexed and then run through a QIAshredder column. RNA was extracted from the supernatant and eluted with a 30 uL volume. RNA purity was assessed (A260/A280) using a Nanodrop one spectrophotometer (Thermofisher Scientific, Waltham, Mass., USA). For removal of genomic DNA, 800 ng RNA was incubated with 2 units DNase I (RNase-free) (New England Biolabs, Ipswich, Mass., USA) in DNase reaction buffer at 37° C. for 10 min. […]
The generation of oligonucleotide dimers for each TaqMan primer pair was assessed using Power SYBR®Green PCR Master-Mix (Foster City, Calif., Applied Biosystems) with melting curve analysis, according to the manufacturer's instructions. […] Data were analyzed using the Step One Software to generate Ct value for each sample.
A plot of Ct versus log copy number standard curve was generated using synthesized monax TNFα cDNA standard. The Ct value for each data point was then determined and normalized to the standard curve to obtain the copy number. […]

| Structure (SMILES) | monax TNFα gene activation (copy number per ng of mRNA) |
| --- | --- |
| CCOCc1nc2c(N)nc3ccccc3c2n1CC(C)(C)OCCNC(=O)C(C)(C)N | potent activation |
| CCCN(CCC)C(=O)C1=Cc2ccc(C(=O)Nc3cnc4c(c3)CNCC4)cc2N=C(N)C1 [Compound 1.50, 2-amino-N^4,N^4-dipropyl-N^8-(5,6,7,8-tetrahydro-1,6-naphthyridin-3-yl)-3H-benzo[b]azepine-4,8-dicarboxamide] | potent activation |

Reference: US20210154317A1, “COMPOSITIONS AND METHODS FOR THE TREATMENT OF VIRAL INFECTIONS” (Silverback Therapeutics, Inc., priority 2017, published 2021)
